Strand notation (5' to 3'): a small letter for the sugar, then the base; units joined by * are phosphorothioate-linked, units joined directly phosphodiester-linked; [ ] holds rarer units or linkages, { } end groups; capitals alone tell only the bases. e = 2'-O-(2-methoxyethyl) (MOE); k = constrained ethyl (cEt); [5mC] = 5-methylcytosine; d = 2'-deoxy (DNA); m = 2'-O-methyl
What follows are substances tested on Yap1 mRNA (assay: Antisense inhibition of human Yap1 in SNU-449 cells by modified oligonucleotides, single dose (Example 5, RTS36584)). Conditions: Table 39; SNU-449 cells, 10,000 cells per well, free uptake, 2,000 nM oligonucleotide, approx. 48 hours; RTS36584; normalized to RIBOGREEN; Yap1 mRNA relative to untreated control.
Type: cell-based
How it was run: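 Free uptake, 2,000 nM, ~48 h, SNU-449 at 10,000 cells/well. Read-out: qRT-PCR (RTS36584), RIBOGREEN-normalised, expressed as % UTC. Asterisk = oligo hits amplicon region.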

Point of comparison: “1198404 (kT*dT*dT*dG*dG*dA*dA*dG*dA*dT*d[5mC]*kT*eG*kA*eA*kA) [Compound 1198404]”, “YAP1 (% UTC)” value 55 % UTC. Against it:
- 1198416 (kA*dG*dA*dT*dT*dT*dA*dG*dG*dA*dT*kG*e[5mC]*kA*eT*kG; antisense) [Compound 1198416] — lower, 29 % UTC

Same assay, conditions: Table 40 (separate experiment); SNU-449 cells, 10,000 cells per well, free uptake, 2,000 nM oligonucleotide, approx. 48 hours; RTS36584; normalized to RIBOGREEN; Yap1 mRNA relative to untreated control

Point of comparison: “1198764 (kA*eG*kA*dT*dT*dT*dA*dG*dG*dA*dT*dG*e[5mC]*eA*kT*kG; antisense) [Compound 1198764]”, “YAP1 (% UTC)” value 28 % UTC. Against it:
- 1198798 (antisense kT*eA*kA*dG*dT*dA*dA*dG*dG*dT*dT*dT*e[5mC]*e[5mC]*k[5mC]*kA) [Compound 1198798] — higher, 38 % UTC

Same assay, conditions: Table 41; SNU-449 cells, 10,000 cells per well, free uptake, 2,000 nM modified oligonucleotide, approximately 48 hours; RTS36584; normalized to RIBOGREEN; Yap1 mRNA relative to untreated control cells

With “1198644 (kT*kA*dT*dA*dT*dT*dA*dG*dA*dG*dT*dA*kT*eG*kT*eG; antisense) [Compound 1198644]” the “YAP1 (% UTC)” value was 73 % UTC.

Same assay, conditions: Table 42 (separate experiment); SNU-449 cells, 10,000 cells per well, free uptake, 2,000 nM modified oligonucleotide, approximately 48 hours; RTS36584; normalized to RIBOGREEN; Yap1 mRNA relative to untreated control cells

Point of comparison: “1198704 (kA*kA*d[5mC]*dT*dT*dT*dA*dA*dA*dG*dT*dG*kT*eA*kT*eG; antisense) [Compound 1198704]”, “YAP1 (% UTC)” value 72 % UTC. Against it:
- 1198694 (antisense kT*kA*dT*dG*dT*dA*dA*dT*dA*dT*dT*dG*k[5mC]*eA*kA*eT) [Compound 1198694] — higher, 110 % UTC
- 1198649 (kG*kA*dG*dG*dT*dA*dT*dA*dA*d[5mC]*dT*dG*kG*eG*k[5mC]*eA) [Compound 1198649] — lower, 27 % UTC
- 1198209 (kT*kA*dG*dA*dG*dT*dA*dT*dG*dT*dG*eG*e[5mC]*eA*kA*kT; antisense) [Compound 1198209] — lower, 45 % UTC
- 1198686 (antisense kG*kA*d[5mC]*dA*dA*d[5mC]*dT*d[5mC]*dT*dT*dA*dT*kA*eT*kG*eG) [Compound 1198686] — higher, 78 % UTC

Same assay, conditions: Table 43 experiment; SNU-449 cells, 10,000 cells per well, free uptake, 2,000 nM, approximately 48 hours; RTS36584; Yap1 mRNA normalized to RIBOGREEN, relative to untreated control cells

Point of comparison: “1198257 (kA*dT*dT*dG*d[5mC]*dA*dA*dT*d[5mC]*dT*dG*eT*e[5mC]*eT*kG*kA; antisense) [Compound 1198257]”, “YAP1 (% UTC)” value 85 % UTC. Against it:
- 1198457 (kA*kT*dT*dG*dT*d[5mC]*dT*d[5mC]*dA*dT*dG*e[5mC]*k[5mC]*eT*kT*eA) [Compound 1198457] — lower, 18 % UTC
- 1198277 (kA*kA*dG*dT*dA*dA*dG*dG*dT*dT*dT*e[5mC]*e[5mC]*e[5mC]*kA*kG; antisense) [Compound 1198277] — lower, 32 % UTC
- 1198267 (kA*kG*dT*dG*dT*dA*dT*dG*dT*d[5mC]*dA*eG*eA*eA*kG*kA; antisense) [Compound 1198267] — lower, 7 % UTC
- 1198467 (antisense kT*kA*dG*dA*dG*dT*dA*dT*dG*dT*dG*eG*k[5mC]*eA*kA*eT) [Compound 1198467] — lower, 27 % UTC

Same assay, conditions: Table 44 experiment; SNU-449 cells, 10,000 cells per well, free uptake, 2,000 nM, approximately 48 hours; RTS36584; Yap1 mRNA normalized to RIBOGREEN, relative to untreated control cells

Point of comparison: “1198524 (kT*kG*dT*dA*dT*dG*dT*d[5mC]*dA*dG*dA*eA*kG*eA*kG*eT; antisense) [Compound 1198524]”, “YAP1 (% UTC)” value 3 % UTC. Against it:
- 1198540 (antisense kA*kG*dA*d[5mC]*dT*dA*dA*dG*dT*dA*dA*eG*kG*eT*kT*eT) [Compound 1198540] — higher, 51 % UTC

Same assay, conditions: Table 45; Yap1 mRNA as percent of untreated control, SNU-449 cells, single dose

Point of comparison: “1198930 (kA*kT*dA*dG*dT*dG*d[5mC]*dT*dT*dT*dG*kG*dA*kA*dG*kA; antisense) [Compound 1198930]”, “YAP1 (% UTC)” value 68 % UTC. Against it:
- 1198958 (kT*kG*dT*dA*dT*dG*dT*d[5mC]*dA*dG*dA*kA*dG*kA*dG*kT; antisense) [Compound 1198958] — lower, 12 % UTC
- 1198954 (kT*kG*dT*dA*dA*dT*dA*dT*dT*dG*d[5mC]*kA*dA*kT*d[5mC]*kT; antisense) [Compound 1198954] — higher, 94 % UTC
- 1198974 (kA*kG*dA*d[5mC]*dT*dA*dA*dG*dT*dA*dA*kG*dG*kT*dT*kT; antisense) [Compound 1198974] — higher, 73 % UTC
- 1198943 (kT*k[5mC]*dT*dT*dA*dT*dA*dT*dG*dG*dT*kT*dT*kT*dG*kT; antisense) [Compound 1198943] — lower, 31 % UTC
- 1198920 (kA*kA*dG*d[5mC]*dA*d[5mC]*dT*dT*dT*dT*dA*k[5mC]*dA*kT*dT*kA; antisense) [Compound 1198920] — lower, 54 % UTC

Same assay, conditions: Table 46; Yap1 mRNA as percent of untreated control, SNU-449 cells, single dose

Point of comparison: “1198835 (kT*kT*dA*dA*dG*d[5mC]*dA*d[5mC]*dT*dT*dT*kT*eA*k[5mC]*eA*kT; antisense) [Compound 1198835]”, “YAP1 (% UT)” value 85 % UT. Against it:
- 1198866 (kT*kA*dA*dT*dA*dT*dT*dG*d[5mC]*dA*dA*kT*e[5mC]*kT*eG*kT; antisense) [Compound 1198866] — lower, 60 % UT
- 1198804 (antisense kT*kG*dT*d[5mC]*dT*d[5mC]*dA*dT*dG*d[5mC]*d[5mC]*kT*eT*kA*eT*kA) [Compound 1198804] — lower, 22 % UT
- 1095427 (antisense k[5mC]*kA*d[5mC]*dT*dG*dA*dG*dG*dT*dA*dT*kA*eA*k[5mC]*eT*kG) [Compound 1095427] — lower, 45 % UT

Same assay, conditions: Table 48; Yap1 mRNA level relative to untreated control; modified oligonucleotides targeting SEQ ID NO.: 1 and 2

Point of comparison: “1198327 (kT*kT*kT*dA*dG*dG*dA*dT*dG*d[5mC]*dA*dT*kG*eG*kT*eT; antisense) [Compound 1198327]”, “YAP1 (% UT)” value 29 % UT. Against it:
- 1198290 (kT*kG*kG*dA*dA*dA*dT*dT*dG*dT*d[5mC]*dT*k[5mC]*eA*kT*eG; antisense) [Compound 1198290] — lower, 15 % UT
- 1198321 (kT*kG*k[5mC]*dT*dT*dT*dG*dG*dA*dA*dG*dA*kT*e[5mC]*kT*eG; antisense) [Compound 1198321] — higher, 45 % UT

Same assay, conditions: Table 49; Yap1 mRNA level relative to untreated control; modified oligonucleotides targeting SEQ ID NO.: 1 and 2

For “1198340 (kA*kA*k[5mC]*dT*d[5mC]*dT*dT*dA*dT*dA*dT*dG*kG*eT*kT*eT; antisense) [Compound 1198340]”, the “YAP1 (% UT)” value was 123 % UT.

Same assay, conditions: Table 50; Yap1 mRNA remaining as percent of untreated control (UT), SNU-449 cells, single dose

Point of comparison: “1198622 (kT*kA*kA*dG*dT*dA*dA*dG*dG*dT*dT*dT*k[5mC]*k[5mC]*k[5mC]*eA; antisense) [Compound 1198622]”, “YAP1 (% UT)” value 26 % UT. Against it:
- 1198604 (antisense kT*kA*kA*dT*dA*dT*dT*dG*d[5mC]*dA*dA*dT*k[5mC]*kT*kG*eT) [Compound 1198604] — higher, 48 % UT
- 1197230 (antisense kT*kG*kG*dA*mA*dA*dT*dT*dG*dT*d[5mC]*dT*d[5mC]*kA*kT*kG) [Compound 1197230] — higher, 29 % UT
- 1197282 (kA*kA*kA*dT*mU*dG*dT*d[5mC]*dT*d[5mC]*dA*dT*dG*k[5mC]*k[5mC]*kT) [Compound 1197282] — higher, 40 % UT
- 1198588 (antisense kA*kG*kA*dT*dT*dT*dA*dG*dG*dA*dT*dG*k[5mC]*kA*kT*eG) [Compound 1198588] — higher, 32 % UT
- 1197292 (kA*k[5mC]*kT*dT*mU*dT*dA*d[5mC]*dA*dT*dT*dA*dG*kG*kA*kA; antisense) [Compound 1197292] — higher, 84 % UT
- 1198627 (kT*kT*kA*dG*dA*d[5mC]*dT*dA*dA*dG*dT*dA*kA*kG*kG*eT; antisense) [Compound 1198627] — higher, 39 % UT
- 1095453 (antisense kT*kG*kA*dG*dG*dT*dA*dT*dA*dA*d[5mC]*dT*kG*kG*kG*e[5mC]) [Compound 1095453] — higher, 32 % UT

Same assay, conditions: Table 51; Yap1 mRNA remaining as percent of untreated control (UT), SNU-449 cells, single dose

With “1197248 (antisense kT*kT*kA*dA*mG*d[5mC]*dA*d[5mC]*dT*dT*dT*dT*dA*k[5mC]*kA*kT) [Compound 1197248]” the “YAP1 (% UT)” value was 75 % UT.

Same assay, conditions: Table 52; Yap1 mRNA, modified oligonucleotides targeting SEQ ID NO: 1 and 2

For “1200836 (kT*k[5mC]*kA*dG*dA*mU*dT*dT*dA*dG*dG*dA*dT*kG*k[5mC]*kA; antisense) [Compound 1200836]”, the “YAP1 (% UT)” value was 72 % UT.

Same assay, conditions: Yap1 mRNA, percent of untreated control; modified oligonucleotides targeting SEQ ID NO: 1 and 2; Table 47

In the case of “1198875 (kA*kA*dA*dG*dT*dG*dT*dA*dT*dG*dT*k[5mC]*eA*kG*eA*kA; antisense) [Compound 1198875]”, the “YAP1 (% UT)” value is reported as 5 % UT.

— US11214803B2, “Modulators of YAP1 expression” (Ionis Pharmaceuticals, Inc., priority 2019, dated 2022)
